Measured values taken from patent US7531195B2, “Schisandrin B preparation” (priority 2005, dated 2009).

Legend:
[1] = tested on: H9c2 cells; assay: Cellular GSH level in H9c2 cells, time course, with or without xanthine/xanthine oxidase (X/XO) challenge; type: cell-based, rat; conditions: 6.25 μM
Method: (§1) H9c2 cells, a permanent cell line derived from cardiac myoblasts of rat embryo, have early been characterized as a suitable model of myocardial cells [Hescheler et al. 1991]. H9c2 cells were cultured as monolayers in Dulbecco's modified Eagle's medium (GIBCO BRL) supplemented with 10% (v/v) fetal bovine serum. The medium contained glucose (4.5 g/L) and glutamine (4.5 mM), supplemented with NaHCO3 (17 mM), penicillin (100 IU/ml), and streptomycin (100 μg/ml). Cells were grown under an atmosphere of 5% CO2 in air at 37° C. The medium was replaced by fresh medium every 2 or 3 days. A stock of cells was grown in a 75 cm culture flask and split before confluence at a subcultivation ratio of 1:10. Cells used for experiments were seeded at a density of 3.75×10^4 cells/well on a 12-well culture plate, and the cells were grown for 24 h to about 80% confluence prior to drug treatment.
Cultured H9c2 cells were treated with (−) Schisandrin B, (+) Schisandrin B or (±) Schisandrin B (dissolved in DMSO) at 6.25 μM (0.2% DMSO final concentration) for increasing periods of time. Control cells were given the vehicle (i.e. DMSO) only. Immediately following the drug or vehicle pretreatment, the cells were challenged with a mixture of xanthine (X) (0.1 mM) and xanthine oxidase (XO) (0.4 U/ml) for 4 h. The control cells were treated with the medium only. After the X/XO challenge, the medium was taken for the measurement of LDH activity, a biochemical index of cellular injury.
The cells were washed twice with 0.5 ml cold phosphate-buffered saline (PBS), An aliquot (200 μl) of 3% sulfonsalicyclic acid was then added, and the mixture was incubate at 4° C. for 10 min. After centrifuging at 300 g for 15 min at 4° C., the supernatant was used for GSH measurement by an enzymatic method of Griffith (1980).

[2] = tested on: Hsp25; assay: Hsp25 expression in H9c2 cells (Western blot); type: cell-based, rat; conditions: 6.25 μM
Method: as §1
Cultured H9c2 cells were treated with (−) Schisandrin B, (+) Schisandrin B or (±) Schisandrin B (dissolved in DMSO) at 6.25 μM (0.2% DMSO final concentration) for increasing periods of time. Control cells were given the vehicle (i.e. DMSO) only.
Immediately following the drug treatment, the cells were washed twice with 0.5 ml cold PBS and treated with 100 μl lysis buffer containing 20 mM Tris HCl, 3 mM EGTA, 1% Triton X-100, 10% glycerol and 2 mM dithiothreitol, pH 7.5, with freshly added protease inhibitors (1 mM phenylmethylsulfonyl fluoride, 0.1 mM benzamide, 5 μg/ml leupeptin, 5 μg aproptinin and 5 μg/ml pepstain A). The mixture was incubated at 4° C. for 15 min with constant shaking. Then the cells were scraped off from the plate, and the extract was transferred to a microcentrifuge tube for centrifugation at 2,400 g for 3 min at 4° C. The resultant supernatant was used for Hsp analysis. Hsp25 and Hsp70 levels was estimated by Western blot analysis using specific antibodies (anti-Hsp25, catalog #SPA-801; anti-Hsp70, catalog #SPA-812) from StressGen (Vancouver, BC, Canada) following SDS-PAGE analysis cell lysates, using a separating gel of 10% acrylamide as described in Ip et. al. [2001]. Hsp25/27 and Hsp70 (human recombinant proteins from StressGen) and actin (bovine muscle from Sigma) were used as markers for reference. […] All immuno-blots were analyzed by densitometry, and the amounts (arbitrary units) of Hsp were normalized with reference to actin levels (arbitrary units) in the sample.

[3] = tested on: isolated heart; assay: Myocardial I-R injury (LDH leakage) in young adult and middle-aged rats; type: in vivo, rat; conditions: 10 mg/kg/day x 35
Method: Young adult (8-10 week-old) and middle-aged (12-14 month-old retired breeder) female Sprague-Dawley rats were maintained under a 12-h dark/light cycle at about 22° C. and allowed food and water ad libitum. Experimental protocols were approved by the Research Practice Committee at the Hong Kong University of Science & Technology, Hong Kong. Animals were randomly divided into groups, with 5 animals in each. In the treatment groups, rats were intragastrically administered with Sch B (dissolved/suspended in olive oil) at a daily dose of 10 mg/kg for 15 days. The daily dose is approximated to 1.14 mg/kg for humans after adjusting the inter-species difference in drug distribution in the body. Untreated control animals received olive oil only. Twenty-four hours after the last dosing, animals were sacrificed by decapitation and the whole brain, heart ventricular, liver and skeletal muscle (hind limb) tissues were excised and subjected to biochemical analysis. To investigate the effect of (−) Sch B on myocardial ischemia-reperfusion […] injury, rats were intragastrically administered with (−) Sch B at a daily dose of 10 mg/kg for 35 days. Untreated control animals received olive oil only. Twenty-four hours after the last dosing, hearts were isolated from pentobarbital-anesthetized animals and subjected to I-R experiment. […]

[4] = X/XO challenge, 16 h post-dosing

COc1cc2c(c(OC)c1OC)-c1c(cc3c(c1OC)OCO3)CC(C)C(C)C2 (single isomer, unassigned; (-)) [(−) Sch B, (−) Schisandrin B]
stimulatory effect on cellular GSH ([1]; 48 h post-dosing): no detectable stimulatory effect | time of maximum stimulation of cellular GSH ([1]; post-dosing): 16 h | GSH Level ([1]; NON-X/XO, 0 h post-dosing (unpretreated control)): 35.8 ± 1.04 nmol/mg protein | GSH Level ([1]; NON-X/XO, 4 h post-dosing): 46.8 ± 0.88 nmol/mg protein | GSH Level ([1]; NON-X/XO, 8 h post-dosing): 54.2 ± 1.42 nmol/mg protein | GSH Level ([1]; NON-X/XO, 16 h post-dosing): 92.6 ± 1.29 nmol/mg protein | GSH Level, percent increase vs unpretreated control (0 h) ([1]; NON-X/XO, 16 h post-dosing): (158%) | GSH Level ([1]; NON-X/XO, 24 h post-dosing): 79.0 ± 1.48 nmol/mg protein | GSH Level ([1]; NON-X/XO, 48 h post-dosing): 54.7 ± 3.58 nmol/mg protein | GSH Level ([1]; X/XO challenge, 0 h post-dosing (unpretreated control)): 15.9 ± 0.45 nmol/mg protein | GSH Level ([1]; X/XO challenge, 4 h post-dosing): 18.3 ± 0.57 nmol/mg protein | GSH Level ([1]; X/XO challenge, 8 h post-dosing): 20.7 ± 0.61 nmol/mg protein | GSH Level [1, 4]: 25.1 ± 1.50 nmol/mg protein | GSH Level, percent increase vs unpretreated control (0 h) [1, 4]: (57%) | GSH Level ([1]; X/XO challenge, 24 h post-dosing): 17.8 ± 0.59 nmol/mg protein | GSH Level ([1]; X/XO challenge, 48 h post-dosing): 16.7 ± 0.63 nmol/mg protein | Hsp 25 Level ([2]; 0 h post-dosing (unpretreated control)): 1722 ± 99 AU | Hsp 25 Level ([2]; 8 h post-dosing): 1386 ± 50 AU | Hsp 25 Level ([2]; 16 h post-dosing): 1432 ± 83 AU | Hsp 25 Level ([2]; 24 h post-dosing): 1956 ± 113 AU | Hsp 25 Level, percent increase vs unpretreated control (0 h) ([2]; 24 h post-dosing): (14%) | Hsp 25 Level ([2]; 48 h post-dosing): 1878 ± 108 AU | time of maximum stimulation of Hsp25 level ([2]; post-dosing): 24 h | degree of protection against myocardial I-R injury ([3]; middle-aged rats): 36% | degree of protection against myocardial I-R injury ([3]; young adult rats): 55%
